From a compilation of properties of binary mixtures (doi:10.1021/acs.jpcb.7b06452)

Assay: xn = mol fraction of the nth substance listed
Settings: 101 kPa

CC(=O)[O-].CCCC[P+](CCCC)(CCCC)CCCC + CC(=O)[O-].CCCC[n+]1ccn(C)c1
viscosity [mPa·s]
Settings | 313.15 K | 323.15 K | 333.15 K | 343.15 K | 353.15 K
x2 = 0 | – | – | 67.1 | 43.1 | 29.1
x2 = 0.5018 | 323 | – | 96.7 | 59.2 | 38.7
x2 = 0.751 | – | 133 | 78 | 49.6 | 33.2

CCCC[n+]1ccn(C)c1.O=S(=O)([N-]S(=O)(=O)C(F)(F)F)C(F)(F)F + CC(=O)[O-].CCCC[n+]1ccn(C)c1
x2 = 0
Settings | viscosity [mPa·s]
293.15 K | 62.9
303.15 K | 40.8
313.15 K | 28.1
323.15 K | 20.29
333.15 K | 15.34
343.15 K | 11.98

CC(=O)[O-].CCCC[n+]1ccn(C)c1 + CCCC[n+]1ccn(C)c1.O=S(=O)([N-]S(=O)(=O)C(F)(F)F)C(F)(F)F
viscosity [mPa·s]
Settings | 293.15 K | 298.15 K | 303.15 K | 313.15 K | 323.15 K | 333.15 K | 343.15 K | 353.15 K
x1 = 0.2512 | 101.2 | 78 | 61.3 | – | 27.9 | 20.19 | 15.46 | –
x1 = 0.5001 | 178 | 132 | – | 60.7 | 39.5 | 27.4 | 19.92 | 15.15
x1 = 0.7497 | 316 | 223 | – | 91.3 | – | 36.9 | 25.7 | 18.76
